Results reported in PubChem BioAssay (NCI).
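Where inhibition never reached the appropriate level, the endpoint shown equals the highest concentration tested. Otherwise, values were interpolated linearly from a five-concentration, 48-hour dose response in 96-well plates. Abbreviation: GI50, concentration required for 50% inhibition of growth. At the TGI there is no net growth.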

How the values were obtained:
Test in all cases: NCI anticancer screen, dose series, 48 h
[1] = test system: MOLT-4 leukemia
[2] = test system: K-562 leukemia
[3] = test system: OVCAR-8 ovarian
[4] = test system: HS 578T breast
[5] = test system: MDA-MB-435
[6] = test system: SW-620 colon
[7] = test system: SK-MEL-2 melanoma
[8] = test system: OVCAR-5 ovarian
[9] = test system: MALME-3M melanoma
[10] = test system: BT-549 breast

Work on OC(COc1cccc2ccccc12)CN1CCN(c2ccccc2Cl)CC1 (centres undefined) yielded a GI50 [1] of 12.6 µM, a TGI [1] of 59.5 µM and a GI50 [2] of 4.58 µM. It also gave a TGI [2] of 17.6 µM, a GI50 [3] of 16.6 µM and a TGI [3] of 32.2 µM. For the same compound, the GI50 [4] was 15.8 µM, the TGI [4] was 58 µM and the GI50 [5] was 14.5 µM. It also gave a TGI [5] of 30.4 µM, a GI50 [6] of 10.9 µM and a TGI [6] of 27.9 µM. The GI50 [7] was 15.4 µM, the TGI [7] was 29.5 µM and the GI50 [8] was 11.5 µM. The TGI [8] was 24.1 µM, the GI50 [9] was 10.3 µM and the TGI [9] was 25.9 µM. For the same compound, the GI50 [10] was 12.9 µM and the TGI [10] was 26.3 µM.
For COc1ccc2c(c1)CC[C@@H]1[C@@H]2CC[C@]2(C)C=C(/C=C/C(=O)c3ccccc3)C[C@@H]12, the GI50 [1] was 16.5 µM, the TGI [1] was 54.5 µM and the GI50 [2] was 18.5 µM. For the same compound, the TGI [2] was 46.4 µM, the GI50 [3] was 31.2 µM and the TGI [3] was > 100 µM. It also gave a GI50 [4] of 19 µM, a TGI [4] of 49 µM and a GI50 [5] of 18.4 µM. For the same compound, the TGI [5] was 36 µM, the GI50 [6] was 15.4 µM and the TGI [6] was 30.2 µM. The GI50 [7] was 21 µM, the TGI [7] was 41.5 µM and the GI50 [8] was 16.5 µM. The TGI [8] was 30.7 µM, the GI50 [9] was 14 µM and the TGI [9] was 30.1 µM. For the same compound, the GI50 [10] was 17.3 µM and the TGI [10] was 32.7 µM.
CC1(C)[C@@H](OC(N)=O)C=C[C@]2(C=O)[C@H]3CC[C@]4(C)[C@@H](c5ccc(=O)oc5)[C@@H](Cl)C[C@]4(O)C3=CC[C@@H]12 was tested, and the GI50 [1] was < 0.0025 µM, the TGI [1] was 0.00724 µM and the GI50 [2] was 0.00668 µM. For the same compound, the TGI [2] was 0.0197 µM, the GI50 [3] was 0.00517 µM and the TGI [3] was 0.0123 µM. For the same compound, the GI50 [4] was < 0.0025 µM, the TGI [4] was 0.0146 µM and the GI50 [5] was 0.006 µM. The TGI [5] was 0.0141 µM, the GI50 [6] was 0.00561 µM and the TGI [6] was 0.013 µM. The GI50 [7] was 0.00679 µM, the TGI [7] was 0.0173 µM and the GI50 [8] was 0.00581 µM. The TGI [8] was 0.0135 µM, the GI50 [9] was 0.00525 µM and the TGI [9] was 0.0109 µM. For the same compound, the GI50 [10] was 0.00491 µM and the TGI [10] was 0.0106 µM.
Compound Cc1c(C(=O)O[C@H]2[C@@H]3[C@H](C)CC[C@H]3[C@]3(C)O[C@@]2(C2CCCCC2)C[C@H]3OC(=O)CO)ccc2ccccc12 has a GI50 [1] of 7.15 µM, a TGI [1] of 17.7 µM and a GI50 [2] of 11 µM. It also gave a TGI [2] of 27 µM, a GI50 [3] of 6.64 µM and a TGI [3] of 13.8 µM. It also gave a GI50 [4] of 0.0165 µM, a TGI [4] of 0.142 µM and a GI50 [5] of 8.15 µM. For the same compound, the TGI [5] was 15.4 µM, the GI50 [6] was 8.01 µM and the TGI [6] was 16.3 µM. It also gave a GI50 [7] of 9.19 µM, a TGI [7] of 16.7 µM and a GI50 [8] of 9.5 µM. For the same compound, the TGI [8] was 17.8 µM, the GI50 [9] was 7.24 µM and the TGI [9] was 14.5 µM. It also gave a GI50 [10] of 5.28 µM and a TGI [10] of 12.7 µM.
In the case of CCOC(=S)SCN1C(=O)c2ccccc2S1(=O)=O, the GI50 [1] is reported as 32.7 µM, the TGI [1] is reported as > 100 µM and the GI50 [2] is reported as 35.7 µM. For the same compound, the TGI [2] was > 100 µM, the GI50 [3] was 20.8 µM and the TGI [3] was > 100 µM. It also gave a GI50 [4] of 29.4 µM, a TGI [4] of 82.5 µM and a GI50 [5] of 6.5 µM. It also gave a TGI [5] of 24.4 µM, a GI50 [6] of 4.96 µM and a TGI [6] of 19.7 µM. For the same compound, the GI50 [7] was 44.5 µM, the TGI [7] was > 100 µM and the GI50 [8] was 14.5 µM. The TGI [8] was 29.9 µM, the GI50 [9] was 1.94 µM and the TGI [9] was 8.76 µM. The GI50 [10] was 16 µM and the TGI [10] was 38.4 µM.
CCCn1c(N)c(C(=O)CNc2ccc(I)cc2)c(=O)[nH]c1=O was tested, and the GI50 [1] was 0.422 µM, the TGI [1] was > 100 µM and the TGI [2] was > 100 µM. The GI50 [3] was 4.72 µM, the TGI [3] was > 100 µM and the GI50 [4] was 17.4 µM. For the same compound, the TGI [4] was > 100 µM, the GI50 [5] was 6.01 µM and the TGI [5] was > 100 µM. For the same compound, the GI50 [6] was 2.89 µM, the TGI [6] was > 100 µM and the GI50 [7] was > 100 µM. The TGI [7] was > 100 µM, the GI50 [8] was > 100 µM and the TGI [8] was > 100 µM. The GI50 [9] was 45.6 µM, the TGI [9] was > 100 µM and the GI50 [10] was > 64.4 µM. The TGI [10] was > 100 µM.
For CCOc1cc(C(C)(C)C)ccc1C1=N[C@@](C)(c2ccc(Cl)cc2)[C@@](C)(c2ccc(Cl)cc2)N1C(=O)N1CCN(CCS(C)(=O)=O)CC1, the GI50 [1] was 0.751 µM, the TGI [1] was 3.96 µM and the GI50 [2] was 3.9 µM. The TGI [2] was 21.7 µM, the GI50 [3] was 4.44 µM and the TGI [3] was 26.5 µM. It also gave a GI50 [4] of 4.1 µM, a TGI [4] of 23.9 µM and a GI50 [5] of 3.47 µM. For the same compound, the TGI [5] was 11.7 µM, the GI50 [6] was 5.03 µM and the TGI [6] was 20.5 µM. The GI50 [7] was 5.29 µM, the TGI [7] was 18.3 µM and the GI50 [8] was 2.46 µM. It also gave a TGI [8] of 7.8 µM, a GI50 [9] of 0.535 µM and a TGI [9] of 6.07 µM. It also gave a GI50 [10] of 3.24 µM and a TGI [10] of 10 µM.
For C1CC[N-]CC1.CC(=N\O)/C(C)=N/O.CC(=N\O)/C(C)=N/O.[CH2-]CCN1CCOCC1.[Co+2], the GI50 [1] was 5.91 µM, the TGI [1] was 39.5 µM and the GI50 [2] was > 100 µM. The TGI [2] was > 100 µM, the GI50 [3] was > 100 µM and the TGI [3] was > 100 µM. For the same compound, the GI50 [4] was > 100 µM, the TGI [4] was > 100 µM and the GI50 [5] was > 100 µM. For the same compound, the TGI [5] was > 100 µM, the GI50 [6] was > 100 µM and the TGI [6] was > 100 µM. For the same compound, the GI50 [7] was > 100 µM, the TGI [7] was > 100 µM and the GI50 [8] was > 100 µM. The TGI [8] was > 100 µM, the GI50 [9] was > 100 µM and the TGI [9] was > 100 µM. For the same compound, the GI50 [10] was > 100 µM and the TGI [10] was > 100 µM.
With COc1ccc(/C=N/N=C(\[O-])c2ccncc2)cc1F.COc1ccc(/C=N\N=C(/[O-])c2ccncc2)cc1F.[Cu+2] the GI50 [1] was 26 µM, the TGI [1] was > 100 µM and the GI50 [2] was 24.6 µM. For the same compound, the TGI [2] was > 100 µM, the GI50 [3] was 13.8 µM and the TGI [3] was 27.5 µM. It also gave a GI50 [4] of 18 µM, a TGI [4] of 60 µM and a GI50 [5] of 62.1 µM. The TGI [5] was > 100 µM, the GI50 [6] was 35.7 µM and the TGI [6] was > 100 µM. The GI50 [7] was 23 µM, the TGI [7] was 53.2 µM and the GI50 [8] was 18.6 µM. The TGI [8] was 32.7 µM, the GI50 [9] was 25.9 µM and the TGI [9] was > 100 µM. For the same compound, the GI50 [10] was 20.5 µM and the TGI [10] was 37.1 µM.
Nc1c(C(=O)Nc2cccc(Br)c2)sc2nc3c(cc12)C(O)CCC3 (centres undefined) showed a GI50 [1] of 0.518 µM, a TGI [1] of 98 µM and a GI50 [2] of 0.12 µM. For the same compound, the TGI [2] was > 38.4 µM, the GI50 [3] was 0.77 µM and the TGI [3] was 37.6 µM. For the same compound, the GI50 [4] was 0.395 µM, the TGI [4] was 12.7 µM and the GI50 [5] was 0.115 µM. The TGI [5] was 0.35 µM, the GI50 [6] was 0.4 µM and the TGI [6] was > 82 µM. It also gave a GI50 [7] of 0.484 µM, a TGI [7] of 36.8 µM and a GI50 [8] of 3.37 µM. For the same compound, the TGI [8] was 60 µM, the GI50 [9] was 0.522 µM and the TGI [9] was > 87.1 µM. For the same compound, the GI50 [10] was 0.972 µM and the TGI [10] was > 75.3 µM.
For C=CCCC(=O)N1C=CC(=O)[C@H](O)[C@@H]1/C=C/c1ccccc1, the GI50 [1] was 15.6 µM, the TGI [1] was > 32.5 µM and the GI50 [2] was 9.3 µM. For the same compound, the TGI [2] was > 32.5 µM, the GI50 [3] was 16 µM and the TGI [3] was > 32.5 µM. For the same compound, the GI50 [4] was > 32.5 µM, the TGI [4] was > 32.5 µM and the GI50 [5] was 10.7 µM. For the same compound, the TGI [5] was > 32.5 µM, the GI50 [6] was 12.8 µM and the TGI [6] was > 32.5 µM. The GI50 [7] was > 32.5 µM, the TGI [7] was > 32.5 µM and the GI50 [8] was > 32.5 µM. The TGI [8] was > 32.5 µM, the GI50 [9] was 9.61 µM and the TGI [9] was > 32.5 µM. The GI50 [10] was 11 µM and the TGI [10] was > 32.5 µM.
In the case of CN(C)CCNc1nc2ccccc2c2c(=O)c3ccccc3sc12, the GI50 [1] is reported as 2.22 µM, the TGI [1] is reported as 6.1 µM and the GI50 [2] is reported as 1.52 µM. For the same compound, the TGI [2] was 3.77 µM, the GI50 [3] was 2.36 µM and the TGI [3] was 6.92 µM. The GI50 [4] was 2.89 µM, the TGI [4] was 11.7 µM and the GI50 [5] was 1.83 µM. The TGI [5] was 3.42 µM, the GI50 [6] was 1.39 µM and the TGI [6] was 3.12 µM. The GI50 [7] was 1.78 µM, the TGI [7] was 3.41 µM and the GI50 [8] was 2.25 µM. For the same compound, the TGI [8] was 5.14 µM, the GI50 [9] was 1.86 µM and the TGI [9] was 4.05 µM. The GI50 [10] was 1.88 µM and the TGI [10] was 3.67 µM.
